Assay results from a compilation of properties of binary mixtures (doi:10.1007/s10953-008-9260-8).

Test: xn = mol fraction of the nth substance listed
Details: 101 kPa

CCCC[n+]1ccn(C)c1.COS(=O)(=O)[O-] + CCCC[n+]1ccn(C)c1.F[B-](F)(F)F
viscosity [mPa·s]
Details	298.15 K	299.15 K	301.15 K	302.15 K	303.15 K	304.15 K	305.15 K	307.15 K	308.15 K
x2 = 0	215	–	181.2	–	162.3	156.8	145.7	131.2	124.5
x2 = 0.1209	192.5	–	–	153.9	145.8	138.2	–	118.2	–
x2 = 0.2142	188.2	177.6	–	147	142.2	134.8	–	115.2	109.5
x2 = 0.3057	180.2	170.3	152.3	–	136.7	–	123.2	111.2	105.9
x2 = 0.406	168.1	160.7	142.4	135	–	121.4	115	104	–
x2 = 0.4358	–	151.3	–	129.3	122.4	116	110	–	94.5
x2 = 0.5118	–	147.4	132.1	125.1	–	112.7	107	96.8	92
x2 = 0.5412	149.5	143.6	128.6	–	115.8	–	104	93.9	89.6
x2 = 0.6026	–	138.4	124.1	–	111.4	105.7	–	–	86.8
x2 = 0.648	141.6	133.8	120	–	108	102.4	97.1	87.8	83.6
x2 = 0.6934	137.5	130	–	110.8	105.1	–	95.1	86.2	82
x2 = 0.7813	128.4	121.5	–	103.9	98.7	93.8	89.3	81.2	77.4
x2 = 0.9005	117.6	111.5	100.7	96	90.7	86.9	–	75.4	72.6
x2 = 0.9447	–	105.3	95.1	90.7	86.2	82	–	71.1	–

CCCC[n+]1ccn(C)c1.F[B-](F)(F)F + CCCC[n+]1ccn(C)c1.COS(=O)(=O)[O-]
x1 = 1
Details	viscosity [mPa·s]
298.15 K	108.9
299.15 K	103.5
301.15 K	93.2
303.15 K	84.5
304.15 K	80.5
307.15 K	69.9
308.15 K	66.8
